The source of these data is US7244446B2, “Method for providing long-lasting pain diminishment through topical or intranasal administration of civamide” (Winston Laboratories, Inc., priority 2003, dated 2007).

Series [1] deals with patients with episodic cluster headaches. In words: Episodic cluster headache patients, 0.025% civamide intranasally once daily for seven days, three-week follow-up. The class given is in vivo, human. The note with it: 0.1 ml of 0.025% civamide in aqueous vehicle, each nostril, 7 days. As for the experimental part:
Patients with episodic cluster headaches were treated with 0.1 ml of 0.025% civamide in an aqueous vehicle given once daily intranasally to each nostril for seven days. Following completion of the seven-day treatment period, cluster headache patients were followed for another three weeks during which they received no treatment.

For series [2], the system named is patients with episodic cluster headache. In words: Episodic cluster headache patients, 0.01% civamide metered nasal spray twice daily for seven days, six-week follow-up. It counts as in vivo, human. The note with it: 0.01% civamide in aqueous vehicle, 7 days. As for the experimental part:
Patients with episodic cluster headache were treated with 0.01% civamide in an aqueous vehicle delivered by metered nasal spray twice daily for seven days. The patients were then followed for an additional six weeks after treatment.

Series [3] concerns patients with long-standing painful osteoarthritis of the knees. Briefly: Painful osteoarthritis of the knees, 0.075% civamide cream three times daily for two to four weeks, then discontinued. It counts as in vivo, human. The note with it: 0.075% civamide in cream vehicle, topical. From the text:
Patients with long-standing painful osteoarthritis of the knees applied 0.075% civamide in a cream vehicle three times daily for two to four weeks, and then the medication was discontinued. Relief of painful osteoarthritis continued for as long as 2–4 months after discontinuing the medication.

Series [4] deals with painful, inflammatory or allergic disorders. The following applies: compositions containing civamide; from U.S. Pat. No. 5,063,060; cited from earlier work.

`COc1cc(CNC(=O)CCCC/C=C\C(C)C)ccc1O` [civamide, cis-8-methyl-N-vanillyl-6-nonenamide]: the “Headache frequency three weeks after treatment versus during or immediately after treatment” value in series [1] (three weeks after completion) is given as “lower three weeks following completion of treatment than during or immediately after the treatment period”. Moreover, the “Frequency of cluster headaches after completion of treatment” value in series [1] (three weeks follow-up without treatment) is “decreased continuously over the three weeks following completion of the short course (7 days) of treatment”. In addition, the “Frequency of cluster headache over follow-up” value in series [2] (six weeks follow-up) is “declined continuously over the six-week period”. The “Reduction in headaches during week six” value in series [2] (week six after treatment) was around 65%. The “Duration of relief of painful osteoarthritis after discontinuing the medication” value in series [3] is reported as 2–4 months. Also, in series [4], the “Efficacy compared with compositions containing capsaicin” value is “comparable in efficacy to compositions containing capsaicin” and the “Local adverse effects compared with capsaicin” value was “significantly less local adverse effects normally associated with capsaicin”.
